# Key:
# E. coli strain MC1061 [1] = assay: Cell viability after bleomycin treatment; assay type: cell-based; settings: 10 μg/ml bleomycin, 60 minutes, 32 C, Luria Broth plus 0.2% glucose
# Method: (§1) In this example, a T4 denA mutant phage is complemented with an antibiotic known to cause single strand breaks in DNA, bleomycin. In this example, the production of any viable progeny phage above the background will be evidence of complementation. E. coli strain MC1061, growing at 32∞ C in Luria Broth plus 0.2% glucose was treated for 60 minutes with 10 μg/ml of bleomycin, which was then removed by centrifuging the cells and re-suspending them in an equal volume of the same media. Under these treatment conditions, cell viability is reduced to about 40-50% of that at the beginning of the treatment. The cells are then allowed to grow for various amounts of time at 32∞ C. in the absence of bleomycin, at which times HU is added to 200 mM.
# E. coli strain MC1061 [2] = assay: Complementation of T4 denA mutant phage by bleomycin: progeny phage production; assay type: cell-based
# Method: as §1
# Phage mutant in both the denA and denB genes is added five minutes later. Unadsorbed input phage are eliminated by treating the infected cultures with anti-T4 sera added 15-20 minutes after infection. This anti-T4 sera treatment to eliminate unadsorbed input phage allows detection of a lower level of progeny phage production. However, the anti-T4 sera must be removed or it will also inactivate progeny phage. This was done by centrifuging the infected cultures 50 minutes after infection, washing the pellets with one-tenth volume of media, centrifuging again, re-suspending the culture in one volume of media and immediately causing lysis of the productive cells by the addition of chloroform.
# Progeny phage production was assayed by standard methods. A control infection was also done on cells given no bleomycin treatment.
substance,measurement,setting,value
bleomycin,"cell viability, relative to that at the beginning of the treatment",E. coli strain MC1061 [1],40-50%
same,factor increase of progeny titre over control (no Bleomycin),E. coli strain MC1061 [2]; outgrowth 0 minutes,1300
same,factor increase of progeny titre over control (no Bleomycin),E. coli strain MC1061 [2]; outgrowth 20 minutes,13000
same,factor increase of progeny titre over control (no Bleomycin),E. coli strain MC1061 [2]; outgrowth 40 minutes,24000
same,factor increase of progeny titre over control (no Bleomycin),E. coli strain MC1061 [2]; outgrowth 60 minutes,45000

# Source: US6455259B2, “Methods for detecting, selecting and cloning agents that degrade or promote degradation of DNA” (priority 1998, dated 2002)
